Measurements taken from patent US20240300997A1, “PROTEIN FOLDING AGENT” (TOHOKU UNIVERSITY, priority 2021, published 2024).

Key:
[1] = target: T1, reduced and denatured β2m (β2-microglobulin) (Homo sapiens, UniProt P61769); assay: Disulfide bond introduction ability into reduced and denatured β2m (reversed-phase HPLC); type: biochemical; conditions: 1 mM thiol compound and 0.2 mM disulfide compound
T1 construct: made in house; host or cells: E. coli
Description: β2m was expressed as a recombinant by an E. coli expression system, and the collected cells were suspended in lysate A (50 mM Tris-HCl, pH 8.1; 300 mM NaCl), followed by ultrasonic disintegration. The fraction obtained after centrifugation was incubated in the presence of 8 M urea and 20 mM DTT at pH 8.0 and 50° C. for 3 hours, followed by purification by reversed-phase column chromatography (Hitachi) using a Cosmosil 5C18-AR-II column. • Reference Document 1: M. Okumura, H. Kadokura, S. Hashimoto, K. Yutani, S. Kanemura, T. Hikima, Y. Hidaka, L. Ito, K. Shiba, S. Masui, D. Imai, S. Imaoka, H. Yamaguchi, K. Inaba, Inhibition of the functional interplay between endoplasmic reticulum (ER) oxidoreduclin-1α (Ero1α) and protein-disulfide isomerase (PDI) by the endocrine disruptor bisphenol A. J Biol Chem. 2014 289(39): 27004-27018. • Reference Document 2: J. S. Weissman, P. S. Kim, Reexamination of the folding of BPTI: predominance of native intermediates. Science 1991 253 (5026): 1386-93. • Reference Document 3: M. M. Lyles, H. F. Gilbert Catalysis of the oxidative folding of ribonuclease A by protein disulfide isomerase: dependence of the rate on the composition of the redox buffer. Biochemistry. 1991 30 (3): 613-9.
A buffer having the following combinations of 1 mM of a thiol compound and 0.2 mM of a disulfide compound (50 mM Tris-HCl, pH 7.5; 300 mM NaCl) was incubated at 30° C. with 10 μM of the reduced and denatured β2m prepared in the above 8), followed by a folding reaction.
The reaction solution was dispensed over time, followed by adding an equal amount of 6 M guanidine hydrochloric acid and 1.5 M HCl, and the disulfide bond introduction reaction was quenched. In order to identify the molecular species in the reaction solution, the resultant was subjected to reversed-phase HPLC, and an oxidation type (N) and a reduction type (R) of β2m were analyzed (FIG. 4A to FIG. 4C and FIG. 5). […]
Measurement and analysis conditions of the reversed-phase HPLC are shown below. 5C18-AR2 column (4.6×150 mm; NACALAI TESQUE) was used as a column, and an absorbance at 229 nm was detected. […]

[2] = target: T2, native type β2m (Homo sapiens, UniProt P61769); assay: β2m aggregation experiment by heating; type: biochemical; conditions: 1 mM thiol compound; for appearance of the solution after cooling (before centrifugation): 10 µM native type β2m, heated from 25° C. to 50° C., 10 minutes, cooled to 25° C., FIG. 8; for residual rate of the native type β2m in the supernatant liquid: after heating to 50° C. and centrifugation, absorbance at 280 nm, FIG. 9
T2 construct: made in house; host or cells: E. coli
Description: A buffer containing 10 µM of native type β2m (50 mM Tris-HCl, pH 7.5; 300 mM NaCl) was heated from 25° C. to 50° C., equilibrated for 10 minutes when the temperature reached 50° C., and then cooled to 25° C. For a supernatant liquid of the fraction obtained after centrifugation, a residual rate of the native type β2m in the supernatant liquid was measured by measuring an absorbance at 280 nm using a spectrophotometer.
For a buffer containing 10 µM of native type β2m (50 mM Tris-HCl, pH 7.5; 300 mM NaCl), 1 mM of the following thiol compound was added, and the obtained mixture was heated from 25° C. to 50° C., equilibrated for 10 minutes when the temperature reached 50° C., and then cooled to 25° C.
For a supernatant liquid of the fraction obtained after centrifugation, a residual rate of the native type β2m in the supernatant liquid was measured by measuring an absorbance at 280 nm using a spectrophotometer.

Compound | reaction rate constant of the disulfide bond introduction reaction (pseudo-first-order reaction) [1] | appearance of the solution after cooling (before centrifugation) [2] | residual rate of the native type β2m in the supernatant liquid [2]
NCC(CN)SSC(CN)CN [BDA-SS] | 3.59×10^−2 |  | 
oxidized glutathione [GSSG, reference compound] | 1.12×10^−4 |  | 

Second part, led by results:

reaction rate constant of the disulfide bond introduction reaction (pseudo-first-order reaction) [1] | appearance of the solution after cooling (before centrifugation) [2] | Compound | residual rate of the native type β2m in the supernatant liquid [2]
 | transparent | NCC(S)CN [BDA-SH, 1,3-diaminopropane-2-thiol] | higher than that in the case of no additive and in the case of GSH
 | transparent | NCCNCCS [LDA-SH, 2-((2-aminoethyl)amino)ethane-1-thiol] | higher than that in the case of no additive and in the case of GSH
6.96×10^−4 |  | NCCNCCSSCCNCCN [LDA-SS] | 
